Patent US7402310B2, “Deoxyribonuclease, gene encoding same and use thereof” (priority 2001, dated 2008)

Assays:
DLAD [1] = target: T1, DLAD (Mus musculus, UniProt Q9QY48); assay: Divalent cation-dependency of DLAD activity (chelators); type: biochemical; conditions: 1 mM chelator; pH 5.2 and pH 7.2; supercoiled plasmid
T1 construct: These plasmids encode the mature proteins of DLAD and DNase II, respectively, wherein Myc and His-tags are added to their C termini; made in house; host or cells: HeLa S3 cells (human), transient transfection, Ni-NTA purification
T1 sequence (Q9QY48 23-354): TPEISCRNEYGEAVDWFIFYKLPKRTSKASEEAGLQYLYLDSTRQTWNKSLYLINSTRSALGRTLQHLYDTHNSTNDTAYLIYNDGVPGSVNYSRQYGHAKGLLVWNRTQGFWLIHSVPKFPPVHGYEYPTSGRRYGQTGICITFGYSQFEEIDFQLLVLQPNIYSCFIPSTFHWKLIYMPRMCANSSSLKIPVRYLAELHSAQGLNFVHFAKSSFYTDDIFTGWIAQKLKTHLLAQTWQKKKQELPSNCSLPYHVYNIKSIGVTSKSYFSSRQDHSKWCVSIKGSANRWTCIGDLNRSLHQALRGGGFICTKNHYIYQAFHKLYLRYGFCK
Method: (§1) In the same manner as in (2) of Example 3, HeLa S3 cells (5×10^6) were transfected with 25 μg of pcmDLAD-Myc-His or pcmDNaseII-Myc-His, individually. These plasmids encode the mature proteins of DLAD and DNase II, respectively, wherein Myc and His-tags are added to their C termini. After incubation of the cells for 48 hr, recombinant DLAD and recombinant DNase II were purified by IMAC using Ni-NTA spin column, in the same manner as in (2) of Example 3. […]
(§2) In the following experiments, the assay for DNase activity was performed as below, unless otherwise described. […] After ethidium bromide staining, the image was scanned with CCD camera (Atto) under UV transillumination and optical density of the band corresponding to the full length substrate DNA was quantified by densitometry (NIH image 1.60). DNase activity was determined using reduction of the band intensity corresponding to the full length substrate DNA as an index. […]
Using a supercoiled plasmid as a substrate, DLAD activities in the presence and absence of a divalent cation chelator were determined under acidic (50 mM Mes-NaOH, pH 5.2) and neutral (50 mM Mops-NaOH, pH 7.2) conditions, respectively. […]

DLAD [2] = target: T1, DLAD; assay: Sensitivity of DLAD DNase activity against inhibitors; type: biochemical; conditions: standard conditions: pH 5.2, 45° C., 20 min, plasmid DNA substrate; read-out: IC50, inhibition of DLAD activity
Method: In the same manner as in (2) of Example 3, HeLa S3 cells (5×10^6) were transfected with 25 μg of pcmDLAD-Myc-His or pcmDNaseII-Myc-His, individually. These plasmids encode the mature proteins of DLAD and DNase II, respectively, wherein Myc and His-tags are added to their C termini. After incubation of the cells for 48 hr, recombinant DLAD and recombinant DNase II were purified by IMAC using Ni-NTA spin column, in the same manner as in (2) of Example 3. The purified DLAD (or DNase II), which was eluted in 300 μl of elution buffer [50 mM sodium phosphate (pH 8.0) containing 250 mM imidazole and 300 mM NaCl], was dialyzed against 20 mM Mes-NaOH containing 1 mM 2-mercaptoethanol and used in the following assay for enzyme activities. The Sample obtained by treating HeLa S3 cells transfected with empty vector in the same manner was used as a control.
In the following experiments, the assay for DNase activity was performed as below, unless otherwise described. 20 μl of reaction mixture [50 mM Mes-NaOH (pH 5.2), 1 mM 2-mercaptoethanol, 1 unit of enzyme, 500 ng supercoiled or EcoR I-digested linear pBLUESCRIPT KS+ phagemid vector] was prepared on ice and incubated at 45° C. for 20 min. The reaction was terminated with phenol/chloroform and 5 μl aliquot of the reaction mixture was subjected to 1% agarose gel electrophoresis. After ethidium bromide staining, the image was scanned with CCD camera (Atto) under UV transillumination and optical density of the band corresponding to the full length substrate DNA was quantified by densitometry (NIH image 1.60). DNase activity was determined using reduction of the band intensity corresponding to the full length substrate DNA as an index. In the present invention, 1 unit of DLAD and DNase II activities are defined as their amounts required to decrease the band intensity corresponding to 200 ng of the full length substrate DNA under the above-mentioned reaction conditions.
DLAD activities were determined in the presence of various concentrations of DNase inhibitors [MgCl2 (FIG. 2A, ◯), MgSO4 (FIG. 2A, ●), aurintricarboxylic acid (FIG. 2B), G-actin (FIG. 2C), CoCl2 (FIG. 2D, ▪), NiCl2 (FIG. 2D, Δ) and ZnCl2 (FIG. 2D, ●)] under the above-mentioned standard conditions to analyze its sensitivity against the inhibitors. […] In contrast, it is known that there are little differences between these three divalent metal ions in inhibitory effect on DNase II [J. Biochem., 87: 1097-1103 (1980)].

[3] = Characterization of recombinant rat and human DLAD; type: biochemical; conditions: recombinant protein from HeLa S3 cells
Source text: Using the same strategy as in Example 1, a rat EST clone (GenBank AF178974) encoding the amino acid sequence with homology to the deduced amino acid sequence of human DNase II was identified. Oligonucleotide primers were synthesized based on the nucleotide sequence of this clone, followed by the RACE with liver poly A(+) RNA derived from Wister rat, which is connately pigment-deficient (albino), as a template to clone the full length rat DLAD cDNA. From the sequence analysis by a conventional method, it was deduced that this cDNA contains an ORF encoding 356 amino acids with a signal peptide consisting of 22 amino acids at the N terminus. […] An expression vector encoding rat DLAD with Myc and His-tags at the C terminus (prDLAD-Myc-His) was constructed by the same strategy as in (1) of Example 3. HeLa S3 cells were transfected with this vector to generate a recombinant rat DLAD.
(sequence complementary to the nucleotide sequence of the nucleotide Nos. 973 to 999 of the nucleotide sequence shown in Sequence Listing, SEQ ID NO: 4) were synthesized and, further using the above-mentioned linker primer AP1 together with these primers, RACE was performed with human liver-derived poly A(+) RNA as a template to clone the full length human DLAD cDNA. […]

supercoiled plasmid = assay: Active pH range and optimal pH of DNase activity; type: biochemical; conditions: Mes-NaOH; pH 4.0 to 7.6 examined
Method: as §1, §2
Using a supercoiled plasmid as a substrate, DLAD and DNase II activities were determined under the above-mentioned standard conditions except varying kinds of buffers and pH [i.e., acetate-NaOH (pH 4.0 and 4.4), Mes-NaOH (pH 4.8, 5.2, 5.6, 6.0 and 6.4) and Mops-NaOH (pH 6.4, 6.8, 7.2 and 7.6)]. […]

[4] = test system: supercoiled p[…]+ phagemid vector; assay: Mode of DNA hydrolysis (end labeling of degraded plasmid); type: biochemical; conditions: standard conditions
Method: Using a supercoiled pBLUESCRIPT KS+ phagemid vector as a substrate, enzyme reaction of DLAD or DNase II was performed under the above-mentioned standard conditions. After terminating the reaction, contaminants were removed by phenol/chloroform treatment to isolate degraded plasmid DNA. The 3′ ends were labeled in 50 μl of a reaction solution consisting of 20 units of terminal deoxynucleotidyl transferase (Toyobo), 0.83 mCi/ml […], 100 mM sodium cacodylate (pH 7.2), 0.2 mM DTT and 1 mM CoCl2. The 5′ ends were labeled in 50 μl of a reaction solution consisting of 20 units of polynucleotide kinase (Toyobo), 0.83 mCi/ml [γ-^32P]ATP, 50 mM Tris-HCl (pH 8.0), 10 mM MgCl2 and 10 mM 2-mercaptoethanol. The end-labeling treatments were performed as to both DNAs with and without pretreatment with 20 units of calf intestinal alkaline phosphatase (Takara) in the presence of 50 mM Tris-HCl (pH 8.0) and 1 mM MgCl2 to remove the phosphoryl groups in the ends of DNAs, respectively. Unincorporated nucleotides were removed by ethanol precipitation. The labeled DNA was subjected to 1% agarose gel electrophoresis, transferred onto nylon membrane and analyzed with BAS 1500 image analyzer (Fuji Film). […]

[5] = Stability in the medium for HeLa S3 cells

O=C(O)CN(CCN(CC(=O)O)CC(=O)O)CC(=O)O [EDTA]
Effect of divalent cation chelator on DLAD activity (DLAD [1]): no effect

O=C(O)CN(CCOCCOCCN(CC(=O)O)CC(=O)O)CC(=O)O [EGTA]
Effect of divalent cation chelator on DLAD activity (DLAD [1]): no effect

O=C(O)C1=CC(=C(c2ccc(O)c(C(=O)O)c2)c2ccc(O)c(C(=O)O)c2)C=CC1=O [Aurintricarboxylic acid]
IC50 (DLAD [2]): 0.006 mM

[Cl-].[Cl-].[Zn+2] [Zn^2+, ZnCl2]
IC50 (DLAD [2]): 0.2 mM

[Cl-].[Cl-].[Mg+2] [MgCl2]
IC50 (DLAD [2]): 13 mM

O=S(=O)([O-])[O-].[Mg+2] [MgSO4]
IC50 (DLAD [2]): 7 mM

B1: rat DLAD: recombinant rat DLAD, ORF encoding 356 amino acids, Myc and His-tags at the C terminus (protein, UniProt Q9QZK9 23-356, looked up)
Deoxyribonuclease-2-beta: TPVISCINEDGKAVDWFAFYKLPRRTSRGGTGMGLDYLYLDSTMRTWSKSHHLINSSRSSLGRTLEQLYEAHNAKNDTAYLIYNDAVPASVNYSGNYGHAKGLLVWNRVQGFWLIHSIPKFPPVPEKGYEYPSSGRQYAQSGLCITLKYSQYETIDSQLLVFQPNIYSCFIPNIFRWELIHMPQMCAKSSASKIPSRRLTVLQSAQGLNFLHFAKSTFYTDDIFAAWIAQKLKVHLLVESWQRKNHELPSNCSLPYHVYNIKAIRGPLQSDFPSHHDHSKWCVSTKDSQARWTCIGDLNRSPHQALRSGGFICSKNRYIYQSFDRLVSHYASCN
modifications: C-terminal Myc and His tags
notes: recombinant rat DLAD, ORF encoding 356 amino acids, Myc and His-tags at the C terminus
Properties: active pH range, divalent cation-dependency, mode of DNA cleavage, sensitivity to inhibitors [3]: properties similar to mouse DLAD

B2: human DLAD: recombinant human DLAD, SEQ ID NO: 3, Myc and His-tags at the C terminus (protein, listed as Homo sapiens)
chain: MKQKMMARLLRTSFALLFLGLFGVLGAATISCRNEEGKAVDWFTFYKLPKRQNKESGETGLEYLYLDSTTRSWRKSEQLMNDTKSVLGRTLQQLYEAYASKSNNTAYLIYNDGVPKPVNYSRKYGHTKGLLLWNRVQGFWLIHSIPQFPPIPEEGYDYPPTGRRNGQSGICITFKYNQYEAIDSQLLVCNPNVYSCSIPATFHQELIHMPQLCTRASSSEIPGRLLTTLQSAQGQKFLHFAKSDSFLDGIFAAWMAQRLKTHLLTETWQRKRQELPSNCSLPYHVYNIKAIKLSRHSYFSSYQDHAKWCISQKGTKNRWTCIGDLNRSPHQAFRSGGFICTQNWQIYQAFQGLVLYYESCK
modifications: C-terminal Myc and His tags
Properties: active pH range, divalent cation-dependency, mode of DNA cleavage, sensitivity to inhibitors [3]: properties similar to mouse DLAD

B3: DLAD: novel acid DNase cleaving DNA independently from divalent cations; mouse, amino acid Nos. 1 to 332 of SEQ ID NO: 1 (protein, listed as Mus musculus)
chain: MTAKPLRTVLSLLFFALSGVLGTPEISCRNEYGEAVDWFIFYKLPKRTSKASEEAGLQYLYLDSTRQTWNKSLYLINSTRSALGRTLQHLYDTHNSTNDTAYLIYNDGVPGSVNYSRQYGHAKGLLVWNRTQGFWLIHSVPKFPPVHGYEYPTSGRRYGQTGICITFGYSQFEEIDFQLLVLQPNIYSCFIPSTFHWKLIYMPRMCANSSSLKIPVRYLAELHSAQGLNFVHFAKSSFYTDDIFTGWIAQKLKTHLLAQTWQKKKQELPSNCSLPYHVYNIKSIGVTSKSYFSSRQDHSKWCVSIKGSANRWTCIGDLNRSLHQALRGGGFI
Optimal pH of DNase activity (supercoiled plasmid): 5.2 | DNA cleavage mode (ends generated) [4]: 3′-P/5′-OH ends | Stability in the medium [5]: as stable as DNase II
